In patent US20250144220A1, “CONJUGATE FOR PREVENTING AND TREATING VIRAL INFECTIONS AND USE THEREOF” (priority 2021, published 2025) one finds EC50 data, which are given here for 3 compounds.

Molecules are shown by their SMILES. Like-named read-outs stand apart in the source and are kept apart here.

What all share (assay): microbe, parasite or virus in culture
Holding throughout (format): cell-based, influenza virus H1N1

For assay [1], the system named is Baloxavir-resistant A/PR/8/34 (H1N1).
Assay [2] concerns VX-787-resistant A/PR/8/34 (H1N1).
Assay [3] concerns Oseltamivir-resistant A/Weiss/43 (H1N1).

In the case of `O=C1c2c(O)c(=O)ccn2N([C@@H]2c3ccccc3SCc3c2ccc(F)c3F)[C@@H]2COCCN12` [Baloxavir, baloxivir], the concentration for a half-maximal effect (EC50) (usually the midpoint of the concentration-response curve) in assay [1] (Influenza A virus, MDCK, 120 h) stood at 95 nM; in assay [2] (Influenza A virus, MDCK, 120 h) it was 0.58 nM.
In the case of `CCC(CC)O[C@@H]1C=C(C(=O)O)C[C@H](N)[C@H]1NC(C)=O` [Oseltamivir acid], the EC50 in assay [3] (Influenza A virus, H1N1, MDCK, 120 h) is above 100000 nM; in assay [1] (Influenza A virus, MDCK, 120 h), 2380 nM; in assay [2] (Influenza A virus, MDCK, 120 h), 1060 nM.
`CC(=O)N[C@H]1[C@H]([C@H](O)[C@H](O)CO)OC(C(=O)O)=C[C@@H]1N=C(N)N` [Zanamivir, zanamivir, reference compound]: the EC50 in assay [3] (read-out: EC50) was 24.4 nM; in assay [1] (read-out: EC50) it was 1390 nM; in assay [2] (read-out: EC50) it was 167 nM.
